From patent publication US11464749B2, “Bismuth-thiol compositions and methods of use” (Microbion Corporation, priority 2018, dated 2022)
Like-named read-outs stand apart in the source and are kept apart here. Marks after values point to notes of the source that are not given here.

What was measured:
Candida krusei = experiment: Broth microdilution antifungal susceptibility (Example 13); type: cell-based
Candida auris = experiment: as above; type: cell-based
A. terreus = experiment: as above; type: cell-based; details: A. terreus MMX 8229
Candida glabrata = experiment: as above; type: cell-based
A. niger = experiment: as above; type: cell-based; details: A. niger ATCC 29508
Candida albicans = experiment: as above; type: cell-based
A. flavus = experiment: as above; type: cell-based; details: for MIC0: comparators, read time not given
A. fumigatus = experiment: as above; type: cell-based; details: for MIC0: comparators, read time not given
Burkholderia spp. = experiment: organism not typed; type: cell-based
P. aeruginosa = experiment: FIC checkerboard assay; type: cell-based; details: for MICB / FICB: by checkerboard; for FICB: Colistin in combination with BisEDT; for MIC: Pseudomonas aeruginosa, Aztreonam alone (checkerboard with BisEDT), read-out: Drug B MIC
B. cepacia [1] = experiment: FIC checkerboard assay; type: cell-based
B. cenocepacia [2] = experiment: FIC checkerboard assay; type: cell-based; details: during FIC testing; B. cenocepacia isolate 0548 (CIP-R)
B. cenocepacia [3] = experiment: Broth microdilution MIC (Example 10); details: initial MIC testing; B. cenocepacia isolate 0548 (CIP-R)
B. cepacia [4] = experiment: Broth microdilution MIC (Example 10); details: initial MIC testing
[5] = isolate ATCC 14243 (Susceptible)
[6] = isolate ATCC 96685 (Susceptible)
[7] = isolate MMX 9878 (MICA-I, VORI-I)
[8] = isolate MMX 9863 (FLU-R, VORI-R)
[9] = isolate MMX 9864 (FLU-R, VORI-R)
[10] = isolate MMX 9865 (FLU-R, VORI-R)
[11] = isolate MMX 9866 (FLU-R, VORI-R)
[12] = isolate MMX 9867 (FLU-R, VORI-R)
[13] = isolate MMX 9868 (FLU-R, VORI-R)
[14] = isolate MMX 9869 (FLU-R, VORI-R)
[15] = isolate MMX 9870 (FLU-R, VORI-R)
[16] = comparators, read time not given
[17] = isolate ATCC 90030 (Susceptible)
[18] = isolate ATCC MYA-2950 (Susceptible)
[19] = isolate MMX 7103 (CASP-R, MICA-R)
[20] = isolate MMX 7285 (CASP-R, MICA-R)
[21] = isolate MMX 7307 (CASP-R, MICA-R, FLU-R)
[22] = isolate ATCC 90028 (Susceptible), 24 hr
[23] = isolate ATCC 204276 (MICA-R), 24 hr
[24] = isolate ATCC MYA-2732 (FLU-R, VORI-I), 24 hr
[25] = isolate MMX 7053 (Susceptible), 24 hr
[26] = isolate MMX 7067 (FLU-R, VORI-R), 24 hr
[27] = isolate MMX 7403 (Susceptible), 24 hr
[28] = isolate MMX 7424 (CASP-R, MICA-R), 24 hr
[29] = isolate MMX 7430 (Susceptible), 24 hr
[30] = isolate MMX 7437 (FLU-I), 24 hr
[31] = 48 hr only, insufficient growth for 24 hr read

C[C@@H](c1ncncc1F)[C@](O)(Cn1cncn1)c1ccc(F)cc1F [VORI]
>8 µg/mL: MIC2 (50% inhibition) (Candida auris; [8]) | MIC2 (50% inhibition) (Candida auris; [13]) | MIC2 (50% inhibition) (Candida albicans; [26]) | MIC2 (50% inhibition) (Candida albicans; isolate MMX 7445 (FLU-R, VORI-R), 24 hr)
2 µg/mL: MIC2 (50% inhibition) (Candida auris; [9]) | MIC2 (50% inhibition) (Candida auris; [14]) | MIC2 (50% inhibition) (Candida glabrata; isolate MMX 7093 (FLU-R)) | MIC2 (50% inhibition) (Candida glabrata; isolate MMX 7101 (FLU-R)) | MIC0 (A. flavus; A. flavus ATCC 204304) | MIC0 (A. fumigatus; A. fumigatus MMX 5939)
0.06 µg/mL: MIC2 (50% inhibition) (Candida krusei; [5]) | MIC2 (50% inhibition) (Candida glabrata; isolate MMX 7111 (Susceptible)) | MIC2 (50% inhibition) (Candida glabrata; isolate MMX 7549 (Susceptible))
8 µg/mL: MIC2 (50% inhibition) (Candida auris; [10]) | MIC2 (50% inhibition) (Candida auris; [11]) | MIC2 (50% inhibition) (Candida auris; [12])
0.25 µg/mL: MIC2 (50% inhibition) (Candida krusei; isolate MMX 7125 (Susceptible)) | MIC2 (50% inhibition) (Candida krusei; isolate MMX 7153 (MICA-R)) | MIC2 (50% inhibition) (Candida krusei; isolate MMX 7155 (Susceptible)) | MIC2 (50% inhibition) (Candida krusei; isolate MMX 7563 (Susceptible)) | MIC0 (A. terreus; [16]) | MIC0 (A. fumigatus; A. fumigatus MMX 5934) | MIC0 (A. fumigatus; A. fumigatus MMX 5938)
0.5 µg/mL: MIC2 (50% inhibition) (Candida krusei; [6]) | MIC0 (A. niger; [16]) | MIC2 (50% inhibition) (Candida albicans; [24]) | MIC0 (A. flavus; A. flavus MMX 7935) | MIC0 (A. fumigatus; A. fumigatus ATCC 204305) | MIC0 (A. fumigatus; A. fumigatus ATCC MYA-3626)
4 µg/mL: MIC2 (50% inhibition) (Candida auris; [15]) | MIC2 (50% inhibition) (Candida glabrata; [21])
0.12 µg/mL: MIC2 (50% inhibition) (Candida krusei; isolate ATCC 6258 (MICA-I)) | MIC2 (50% inhibition) (Candida krusei; isolate MMX 7128 (Susceptible)) | MIC2 (50% inhibition) (Candida krusei; isolate MMX 7141 (Susceptible)) | MIC2 (50% inhibition) (Candida glabrata; [17]) | MIC2 (50% inhibition) (Candida glabrata; [18]) | MIC2 (50% inhibition) (Candida glabrata; [19]) | MIC2 (50% inhibition) (Candida albicans; [30])
≤0.008 µg/mL: MIC2 (50% inhibition) (Candida albicans; [22]) | MIC2 (50% inhibition) (Candida albicans; [23]) | MIC2 (50% inhibition) (Candida albicans; [25]) | MIC2 (50% inhibition) (Candida albicans; [27]) | MIC2 (50% inhibition) (Candida albicans; [28]) | MIC2 (50% inhibition) (Candida albicans; [29])
0.03 µg/mL: MIC2 (50% inhibition) (Candida auris; isolate MMX 9862 (Susceptible)) | MIC2 (50% inhibition) (Candida glabrata; isolate MMX 7087 (Susceptible))
1 µg/mL: MIC2 (50% inhibition) (Candida krusei; [7]) | MIC2 (50% inhibition) (Candida auris; isolate MMX 9871 (Susceptible)) | MIC2 (50% inhibition) (Candida glabrata; [20]) | MIC0 (A. flavus; A. flavus ATCC 22546)

OC(Cn1cncn1)(Cn1cncn1)c1ccc(F)cc1F [FLU]
>64 µg/mL: MIC2 (A. terreus) | MIC2 (A. niger) | MIC2 (A. flavus; A. flavus ATCC 22546) | MIC2 (A. flavus; A. flavus ATCC 204304) | MIC2 (A. flavus; A. flavus MMX 7935) | MIC2 (A. fumigatus; A. fumigatus ATCC 204305) | MIC2 (A. fumigatus; A. fumigatus ATCC MYA-3626) | MIC2 (A. fumigatus; A. fumigatus MMX 5934) | MIC2 (A. fumigatus; A. fumigatus MMX 5938) | MIC2 (A. fumigatus; A. fumigatus MMX 5939)

Colistin
1: FICB (Burkholderia spp.; B. multivorans 1795, FIC of Colistin in combination with BisEDT, per checkerboard row) | FICB (P. aeruginosa; P. aeruginosa 6322) | FICB (P. aeruginosa; P. aeruginosa 6977) | FICB (P. aeruginosa; P. aeruginosa 7745)
0.5 µg/mL: MICB (P. aeruginosa; P. aeruginosa 6322, Colistin MIC in combination with BisEDT) | MICB (P. aeruginosa; P. aeruginosa 7745, Colistin MIC in combination with BisEDT)
1 µg/mL: MICB (P. aeruginosa; P. aeruginosa 6977, Colistin MIC in combination with BisEDT)

C[C@H]1[C@H](NC(=O)/C(=N\OC(C)(C)C(=O)O)c2csc(N)n2)C(=O)N1S(=O)(=O)O [Aztreonam]
32 µg/mL: MIC (B. cepacia [1]; Burkholderia cepacia, B. cepacia 546, Aztreonam alone (checkerboard with BisEDT), read-out: Drug B MIC) | MIC (P. aeruginosa; P. aeruginosa 6322)
16 µg/mL: MIC (Burkholderia spp.; read-out: Drug B MIC) | MICB (P. aeruginosa; P. aeruginosa 7745, Aztreonam MIC in combination with BisEDT) | MICB (P. aeruginosa; P. aeruginosa 9108, Aztreonam MIC in combination with BisEDT) | MIC (P. aeruginosa; P. aeruginosa 7745) | MIC (P. aeruginosa; P. aeruginosa 9108)
128 µg/mL: MIC (B. cepacia [1]; Burkholderia cepacia, B. cepacia 1793, Aztreonam alone (panel with BisEDT), read-out: Drug B MIC)
64 µg/mL: MIC (P. aeruginosa; P. aeruginosa 6977)
> 256 µg/mL: MIC (P. aeruginosa; P. aeruginosa 8798)

CC[C@H](C)C[C@H](C)CCCCCCCCC(=O)N[C@H]1C[C@@H](O)[C@@H](NCCN)NC(=O)[C@@H]2[C@@H](O)CCN2C(=O)[C@H]([C@H](O)CCN)NC(=O)[C@H]([C@H](O)[C@@H](O)c2ccc(O)cc2)NC(=O)[C@@H]2C[C@@H](O)CN2C(=O)[C@H]([C@@H](C)O)NC1=O [CASP]
0.25^b μg/mL: MIC2 (50% inhibition) (Candida auris; [9]) | MIC2 (50% inhibition) (Candida auris; [10]) | MIC2 (50% inhibition) (Candida auris; isolate MMX 9871 (Susceptible))
8 µg/mL: MIC2 (50% inhibition) (Candida albicans; [28])
0.25 µg/mL: MIC2 (50% inhibition) (Candida krusei; isolate ATCC 6258 (MICA-I)) | MIC2 (50% inhibition) (Candida krusei; isolate MMX 7125 (Susceptible)) | MIC2 (50% inhibition) (Candida krusei; isolate MMX 7128 (Susceptible)) | MIC2 (50% inhibition) (Candida krusei; isolate MMX 7141 (Susceptible)) | MIC2 (50% inhibition) (Candida krusei; isolate MMX 7153 (MICA-R)) | MIC2 (50% inhibition) (Candida krusei; isolate MMX 7155 (Susceptible)) | MIC2 (50% inhibition) (Candida krusei; [7]) | MIC2 (50% inhibition) (Candida auris; [13]) | MIC2 (50% inhibition) (Candida auris; [14]) | MIC2 (50% inhibition) (Candida auris; [15]) | MIC2 (50% inhibition) (Candida albicans; [23]) | MEC (minimum effective concentration) (A. fumigatus; A. fumigatus ATCC 204305)
0.012 µg/mL: MIC2 (50% inhibition) (Candida krusei; [5])
0.12^b μg/mL: MIC2 (50% inhibition) (Candida auris; [8]) | MIC2 (50% inhibition) (Candida auris; [11]) | MEC (minimum effective concentration) (A. terreus; [31]) | MEC (minimum effective concentration) (A. fumigatus; A. fumigatus MMX 5938, 48 hr only, insufficient growth for 24 hr read)
>8 µg/mL: MIC2 (50% inhibition) (Candida glabrata; [19]) | MIC2 (50% inhibition) (Candida glabrata; [21])
0.12 µg/mL: MIC2 (50% inhibition) (Candida krusei; [6]) | MIC2 (50% inhibition) (Candida krusei; isolate MMX 7563 (Susceptible)) | MIC2 (50% inhibition) (Candida auris; isolate MMX 9862 (Susceptible)) | MIC2 (50% inhibition) (Candida auris; [12]) | MIC2 (50% inhibition) (Candida glabrata; [17]) | MIC2 (50% inhibition) (Candida glabrata; [18]) | MIC2 (50% inhibition) (Candida glabrata; isolate MMX 7087 (Susceptible)) | MIC2 (50% inhibition) (Candida glabrata; isolate MMX 7093 (FLU-R)) | MIC2 (50% inhibition) (Candida glabrata; isolate MMX 7101 (FLU-R)) | MIC2 (50% inhibition) (Candida glabrata; isolate MMX 7111 (Susceptible)) | MEC (minimum effective concentration) (A. fumigatus; A. fumigatus MMX 5934) | MEC (minimum effective concentration) (A. fumigatus; A. fumigatus MMX 5939)
0.06^a μg/mL: MIC2 (50% inhibition) (Candida albicans; isolate MMX 7445 (FLU-R, VORI-R), result after 48 hr incubation (insufficient growth at 24 hr))
0.5 µg/mL: MIC2 (50% inhibition) (Candida glabrata; [20])
0.06^b μg/mL: MEC (minimum effective concentration) (A. niger; [31])
0.06 µg/mL: MIC2 (50% inhibition) (Candida glabrata; isolate MMX 7549 (Susceptible)) | MIC2 (50% inhibition) (Candida albicans; [22]) | MIC2 (50% inhibition) (Candida albicans; [24]) | MIC2 (50% inhibition) (Candida albicans; [25]) | MIC2 (50% inhibition) (Candida albicans; [26]) | MIC2 (50% inhibition) (Candida albicans; [27]) | MIC2 (50% inhibition) (Candida albicans; [29]) | MIC2 (50% inhibition) (Candida albicans; [30]) | MEC (minimum effective concentration) (A. flavus; A. flavus ATCC 22546) | MEC (minimum effective concentration) (A. flavus; A. flavus ATCC 204304) | MEC (minimum effective concentration) (A. fumigatus; A. fumigatus ATCC MYA-3626)
0.03 µg/mL: MEC (minimum effective concentration) (A. flavus; A. flavus MMX 7935)

NC[C@H]1O[C@H](O[C@H]2[C@H](O)[C@@H](O[C@H]3O[C@H](CO)[C@@H](O)[C@H](N)[C@H]3O)[C@H](N)C[C@@H]2N)[C@H](N)C[C@@H]1O [TOB]
64 µg/mL: MIC (B. cenocepacia [3]) | MIC (B. cepacia [4]; B. cepacia isolate 0546) | MIC (B. cepacia [4]; B. cepacia isolate 1793) | MIC (B. cepacia [4]; B. cepacia isolate 1794)
32 µg/mL: MIC (B. cepacia [1]; during FIC testing, B. cepacia isolate 0546) | MIC (B. cenocepacia [2])
